# Experimental data as given in ChEMBL document CHEMBL4673353, “Switching a Xanthine Oxidase Inhibitor to a Dual-Target Antagonist of P2Y and P2Y as an Oral Antiplatelet Agent with a Wider Therapeutic Window in Rats than Ticagrelor” (J Med Chem, 2020).
# The source made the active and inactive calls. The calls are words filed in the database; no cut-off is given here.
# How the values were obtained:
# [1] = Antagonist activity at P2Y1 in rabbit platelet-rich plasma assessed as inhibition of ADP-induced increase in intracellular Ca2+ concentration preincubated for 5 mins followed by ADP addition and measured for 3 mins by fluo4 dye-based fluorescence assay; format: cell-free; details: Oryctolagus cuniculus
# [2] = AUC (0 to infinity) in male Sprague-Dawley rat at 10 mg/kg, iv administered as single dose by LC-MS analysis; format: ADME, organism-based; design: time infinity, route intravenous, dose 10 mg/kg; details: in vivo
# [3] = molecular target: Cytochrome P450 3A4 (Homo sapiens, UniProt P08684); experiment: Inhibition of CYP3A4 in human liver microsomes using testosterone as substrate preincubated for 5 mins followed by NADPH generating system addition and measured after 120 mins by LC-MS/MS; format: ADME
# [4] = molecular target: Xanthine dehydrogenase/oxidase (Bos taurus, UniProt P80457); experiment: Inhibition of bovine xanthine oxidase assessed as reduction in uric acid formation at 10 uM using xanthine as substrate preincubated for 15 mins followed by substrate addition measured at 30 sec interval for upto 2 mins by spectrophotometric analysis relative to control; details: cattle, time 17 min
# [5] = molecular target: Cytochrome P450 2C19 (Homo sapiens, UniProt P33261); experiment: Inhibition of CYP2C19 in human liver microsomes using S-mephenytoin as substrate preincubated for 5 mins followed by NADPH generating system addition and measured after 120 mins by LC-MS/MS; format: ADME
# [6] = molecular target: P2Y purinoceptor 12 (Homo sapiens, UniProt Q9H244); experiment: Agonist activity at P2Y12 in human whole blood assessed as decrease in PGE1-induced VASP phosphorylation at 100 to 200 uM measured after 10 mins by immunostaining based flow cytometric analysis; format: tissue-based; details: dose 100-200 µM
# [7] = molecular target: Cytochrome P450 2E1 (Homo sapiens, UniProt P05181); experiment: Inhibition of CYP2E1 in human liver microsomes using chlorzoxazone as substrate preincubated for 5 mins followed by NADPH generating system addition and measured after 120 mins by LC-MS/MS; format: ADME
# [8] = Stability of compound in rabbit plasma assessed as compound degradation at 10 uM incubated up to 45 mins by HPLC analysis; format: ADME, cell-free, Oryctolagus cuniculus; details: 0.75 h
# [9] = Clearance in male Sprague-Dawley rat at 10 mg/kg, iv administered as single dose by LC-MS analysis; format: ADME, organism-based; details: in vivo
# [10] = Stability of compound in rat plasma assessed as compound degradation at 10 uM incubated up to 45 mins by HPLC analysis; format: ADME, cell-free; details: 0.75 h
# [11] = molecular target: Cytochrome P450 2C9 (Homo sapiens, UniProt P11712); experiment: Inhibition of CYP2C9 in human liver microsomes using tolbutamide as substrate preincubated for 5 mins followed by NADPH generating system addition and measured after 120 mins by LC-MS/MS; format: ADME
# [12] = molecular target: T1, Cytochrome P450 1A2 (Homo sapiens, UniProt P05177); experiment: Inhibition of CYP1A2 in human liver microsomes using phenacetin as substrate preincubated for 5 mins followed by NADPH generating system addition and measured after 120 mins by LC-MS/MS; format: ADME
# T1 sequence (P05177 whole entry): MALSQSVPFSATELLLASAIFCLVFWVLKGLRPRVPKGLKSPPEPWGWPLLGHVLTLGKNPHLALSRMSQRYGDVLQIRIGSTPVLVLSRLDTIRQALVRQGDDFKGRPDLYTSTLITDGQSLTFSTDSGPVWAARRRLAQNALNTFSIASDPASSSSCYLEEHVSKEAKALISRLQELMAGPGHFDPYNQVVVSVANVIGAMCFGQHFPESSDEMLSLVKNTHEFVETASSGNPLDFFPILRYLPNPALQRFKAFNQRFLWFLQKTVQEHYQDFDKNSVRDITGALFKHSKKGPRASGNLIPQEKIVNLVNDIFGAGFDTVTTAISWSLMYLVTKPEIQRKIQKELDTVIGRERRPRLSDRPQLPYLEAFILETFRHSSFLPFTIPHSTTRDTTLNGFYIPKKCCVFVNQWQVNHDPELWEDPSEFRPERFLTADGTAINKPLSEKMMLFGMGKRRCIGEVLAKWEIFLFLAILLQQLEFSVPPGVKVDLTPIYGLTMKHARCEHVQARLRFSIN
# [13] = Apparent volume of distribution in male Sprague-Dawley rat at 10 mg/kg, iv administered as single dose by LC-MS analysis; format: ADME, organism-based; details: in vivo, read-out: Vz
# [14] = system: Rattus norvegicus; experiment: Antithrombotic activity in FeCl3-induced Sprague-Dawley rat model of arterial thrombosis assessed as reduction in thrombus weight at 5 mg/kg, po qd administered as single dose for 7 days and measured 2 hrs post last dose; format: functional; design: scale not given: the % may be the effect or the level left; details: time 7 day
# [15] = Metabolic stability of compound in human liver microsomes assessed as intrinsic clearance per mg protein at 0.2 uM in presence of NADPH measured up to 90 mins by LC-MS/MS analysis; format: ADME, Microsome; details: 1.5 h
# [16] = system: Rattus norvegicus; experiment: Antithrombotic activity in FeCl3-induced Sprague-Dawley rat model of arterial thrombosis assessed as reduction in thrombus weight at 20 mg/kg, po qd administered as single dose for 7 days and measured 2 hrs post last dose; format: functional; design: scale not given: the % may be the effect or the level left; details: time 7 day
# [17] = Toxicity in Sprague-Dawley rat model of tail snip bleeding assessed as bleeding weight at 10 mg/kg, po administered via gavage as single dose measured within 2 hrs post tail snip(reference value: 0.08 g); format: organism-based; details: in vivo
# [18] = Acute toxicity in Kunming mouse assessed as behavioral abnormalities at 2000 mg/kg, ig administered as single dose monitored every day up to14 days; format: organism-based; details: in vivo, po, 336 h, time 14 day
# [19] = Prodrug conversion in male Sprague-Dawley rat assessed as 1-[(4-Cyanobenzyl)oxy]-2-(3-cyanophenyl)-4-methyl-1H-imidazole-5-carboxylic acid formation at 10 mg/kg, po measured at 10 mins by LC-MS analysis; format: ADME, organism-based; details: in vivo
# [20] = Drug metabolism in rat liver microsomes assessed as 1-[(4-Cyanobenzyl)oxy]-2-(3-cyanophenyl)-4-methyl-1H-imidazole-5-carboxylic acid formation at 0.2 uM in presence of NADPH measured up to 90 mins by LC-MS/MS analysis; format: ADME, Microsome; details: 1.5 h
# [21] = system: Rattus norvegicus; experiment: Antithrombotic activity in FeCl3-induced Sprague-Dawley rat model of arterial thrombosis assessed as reduction in thrombus weight administered orally once daily for 7 days and measured 2 hrs post last dose; format: functional; details: dose 5-20 mg/kg
# [22] = Solubility of compound; format: physicochemical
# [23] = Acute toxicity in Kunming mouse assessed as death at 2000 mg/kg, ig administered as single dose monitored every day up to14 days; format: organism-based; details: in vivo, po, 336 h, time 14 day
# [24] = system: Rattus norvegicus; experiment: Antithrombotic activity in FeCl3-induced Sprague-Dawley rat model of arterial thrombosis assessed as reduction in thrombus weight at 10 mg/kg, po qd administered as single dose for 7 days and measured 2 hrs post last dose; format: functional; design: scale not given: the % may be the effect or the level left; details: time 7 day
# [25] = Toxicity in Sprague-Dawley rat model of tail-snip bleeding assessed as increase in bleeding time at 10 mg/kg, po administered via gavage as single dose measured within 2 hrs post tail snip relative to control; format: organism-based; details: in vivo
# [26] = Acute toxicity in Kunming mouse assessed as increase in body weight at 2000 mg/kg, ig administered as single dose monitored every day up to14 days; format: organism-based; details: in vivo, po, 336 h, time 14 day
# [27] = Toxicity in Sprague-Dawley rat model of tail snip bleeding assessed as increase in bleeding weight at 10 mg/kg, po administered via gavage as single dose measured within 2 hrs post tail snip relative to control; format: organism-based; details: in vivo
# Cytochrome P450 2C19, sequence (P33261 whole entry): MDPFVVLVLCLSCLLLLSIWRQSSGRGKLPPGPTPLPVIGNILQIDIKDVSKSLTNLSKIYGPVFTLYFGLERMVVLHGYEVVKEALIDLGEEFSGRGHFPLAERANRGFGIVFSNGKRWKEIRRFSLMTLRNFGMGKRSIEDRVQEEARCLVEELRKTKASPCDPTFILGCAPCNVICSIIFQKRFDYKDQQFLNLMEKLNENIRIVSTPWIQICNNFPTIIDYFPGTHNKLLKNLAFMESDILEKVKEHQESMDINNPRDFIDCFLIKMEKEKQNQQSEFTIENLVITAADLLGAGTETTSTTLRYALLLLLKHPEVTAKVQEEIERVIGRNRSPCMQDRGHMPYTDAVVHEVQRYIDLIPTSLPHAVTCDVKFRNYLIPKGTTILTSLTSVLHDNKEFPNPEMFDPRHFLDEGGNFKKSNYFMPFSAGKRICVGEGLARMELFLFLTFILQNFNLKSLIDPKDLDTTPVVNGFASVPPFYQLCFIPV
# Cytochrome P450 2C9, sequence (P11712 whole entry): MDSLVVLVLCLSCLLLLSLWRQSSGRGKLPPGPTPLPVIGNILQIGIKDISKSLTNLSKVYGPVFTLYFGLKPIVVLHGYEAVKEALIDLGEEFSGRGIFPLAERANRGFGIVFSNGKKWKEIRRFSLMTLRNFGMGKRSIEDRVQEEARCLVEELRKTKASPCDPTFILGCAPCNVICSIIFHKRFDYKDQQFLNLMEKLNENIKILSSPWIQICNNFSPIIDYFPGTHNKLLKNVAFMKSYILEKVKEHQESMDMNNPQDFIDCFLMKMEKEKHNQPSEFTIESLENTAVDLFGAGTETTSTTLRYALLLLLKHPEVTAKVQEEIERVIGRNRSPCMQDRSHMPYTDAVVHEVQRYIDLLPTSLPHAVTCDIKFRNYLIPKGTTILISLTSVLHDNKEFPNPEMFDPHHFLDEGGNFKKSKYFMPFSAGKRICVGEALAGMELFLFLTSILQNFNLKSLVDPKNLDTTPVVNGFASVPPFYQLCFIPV
# Xanthine dehydrogenase/oxidase, sequence (P80457 whole entry): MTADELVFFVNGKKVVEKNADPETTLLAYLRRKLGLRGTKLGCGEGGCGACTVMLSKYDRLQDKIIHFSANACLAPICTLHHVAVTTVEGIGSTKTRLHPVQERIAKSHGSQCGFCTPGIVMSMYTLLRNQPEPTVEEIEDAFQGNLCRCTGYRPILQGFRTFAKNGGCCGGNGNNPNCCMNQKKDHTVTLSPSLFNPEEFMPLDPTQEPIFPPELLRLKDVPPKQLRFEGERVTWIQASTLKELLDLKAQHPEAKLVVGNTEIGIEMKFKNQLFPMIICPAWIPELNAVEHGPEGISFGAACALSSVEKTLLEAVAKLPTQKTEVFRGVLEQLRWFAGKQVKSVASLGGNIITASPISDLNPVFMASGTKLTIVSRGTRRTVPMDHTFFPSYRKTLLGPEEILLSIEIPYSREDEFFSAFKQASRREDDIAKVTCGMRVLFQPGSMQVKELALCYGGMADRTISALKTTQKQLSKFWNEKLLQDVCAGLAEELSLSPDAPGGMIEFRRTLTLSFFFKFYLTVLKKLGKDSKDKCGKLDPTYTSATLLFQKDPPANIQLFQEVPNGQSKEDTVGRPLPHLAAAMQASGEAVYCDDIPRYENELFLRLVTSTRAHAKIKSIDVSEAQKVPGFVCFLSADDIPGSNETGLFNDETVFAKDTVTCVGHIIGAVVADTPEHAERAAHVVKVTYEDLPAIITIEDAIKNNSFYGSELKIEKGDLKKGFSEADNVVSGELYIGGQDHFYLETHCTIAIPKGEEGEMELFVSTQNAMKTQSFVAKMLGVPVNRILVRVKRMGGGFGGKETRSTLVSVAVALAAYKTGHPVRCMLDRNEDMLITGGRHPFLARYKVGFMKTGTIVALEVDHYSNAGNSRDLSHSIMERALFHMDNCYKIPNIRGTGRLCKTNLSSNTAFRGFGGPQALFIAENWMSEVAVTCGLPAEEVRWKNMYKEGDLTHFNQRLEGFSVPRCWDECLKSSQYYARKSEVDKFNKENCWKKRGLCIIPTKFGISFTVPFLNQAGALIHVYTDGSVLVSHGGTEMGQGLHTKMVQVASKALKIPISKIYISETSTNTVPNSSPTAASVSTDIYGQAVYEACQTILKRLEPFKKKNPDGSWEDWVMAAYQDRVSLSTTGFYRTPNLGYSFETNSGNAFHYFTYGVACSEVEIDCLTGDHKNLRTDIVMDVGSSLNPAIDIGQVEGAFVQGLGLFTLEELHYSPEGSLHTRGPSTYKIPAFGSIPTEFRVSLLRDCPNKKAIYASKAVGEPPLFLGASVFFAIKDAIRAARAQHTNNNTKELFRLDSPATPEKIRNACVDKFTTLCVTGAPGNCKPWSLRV
# Cytochrome P450 3A4, sequence (P08684 whole entry): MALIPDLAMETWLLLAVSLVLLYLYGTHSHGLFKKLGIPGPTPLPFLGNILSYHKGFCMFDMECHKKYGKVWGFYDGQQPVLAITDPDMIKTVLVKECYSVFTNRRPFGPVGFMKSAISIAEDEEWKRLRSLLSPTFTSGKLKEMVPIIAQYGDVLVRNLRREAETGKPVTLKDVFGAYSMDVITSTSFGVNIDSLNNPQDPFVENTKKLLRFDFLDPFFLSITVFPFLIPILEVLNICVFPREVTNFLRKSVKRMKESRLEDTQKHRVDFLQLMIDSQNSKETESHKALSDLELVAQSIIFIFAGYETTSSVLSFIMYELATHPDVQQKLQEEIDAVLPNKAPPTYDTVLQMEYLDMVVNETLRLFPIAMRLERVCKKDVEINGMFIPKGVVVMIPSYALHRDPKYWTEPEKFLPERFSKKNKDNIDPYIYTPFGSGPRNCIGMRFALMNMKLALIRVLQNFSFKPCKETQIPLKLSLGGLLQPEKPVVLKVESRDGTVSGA
# P2Y purinoceptor 12, sequence (Q9H244 whole entry): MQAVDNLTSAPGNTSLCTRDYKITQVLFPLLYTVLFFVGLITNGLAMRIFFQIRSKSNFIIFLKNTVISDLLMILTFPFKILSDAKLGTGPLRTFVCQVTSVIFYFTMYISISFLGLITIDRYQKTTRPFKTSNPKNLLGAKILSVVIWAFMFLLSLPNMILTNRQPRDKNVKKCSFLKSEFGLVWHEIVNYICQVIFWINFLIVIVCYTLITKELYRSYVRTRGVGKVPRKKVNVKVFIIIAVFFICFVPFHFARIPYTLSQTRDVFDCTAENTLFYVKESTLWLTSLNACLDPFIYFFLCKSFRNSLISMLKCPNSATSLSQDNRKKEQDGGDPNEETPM
# Cytochrome P450 2E1, sequence (P05181 whole entry): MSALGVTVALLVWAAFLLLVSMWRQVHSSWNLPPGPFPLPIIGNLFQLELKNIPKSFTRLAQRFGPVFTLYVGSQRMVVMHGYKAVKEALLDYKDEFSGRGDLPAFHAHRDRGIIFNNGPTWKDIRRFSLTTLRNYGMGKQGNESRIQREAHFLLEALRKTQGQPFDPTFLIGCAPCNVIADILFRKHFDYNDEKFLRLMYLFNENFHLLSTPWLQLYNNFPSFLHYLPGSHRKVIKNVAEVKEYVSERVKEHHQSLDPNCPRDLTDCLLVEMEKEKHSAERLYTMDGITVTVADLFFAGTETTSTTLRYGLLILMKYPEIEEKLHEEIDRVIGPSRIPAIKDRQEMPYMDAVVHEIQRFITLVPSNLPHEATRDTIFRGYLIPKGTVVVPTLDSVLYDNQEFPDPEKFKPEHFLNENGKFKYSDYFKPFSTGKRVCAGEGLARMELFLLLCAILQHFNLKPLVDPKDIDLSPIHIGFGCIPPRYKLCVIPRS
smiles,measurement,setting,value
Cc1nc(-c2cccc(C#N)c2)n(OCc2ccc(C#N)cc2)c1C(=O)O,IC50,[1],2.59 µM
same,AUC(0-inf),[2],3500 ng·h/mL
same,IC50,[3],> 10 µM
same,inhibition at 10 µM,[4],< 50%
same,IC50,[5],> 10 µM
same,Activity,[6],inactive
same,IC50,[7],> 10 µM
same,Stabilty,[8],Stable
same,clearance,[9],50.5 mL/min/kg
same,Stabilty,[10],Stable
same,IC50,[11],> 10 µM
same,IC50,[12],> 10 µM
same,Vd,[13],21.3 L/kg
CCOC(=O)c1c(C)nc(-c2cccc(C#N)c2)n1OCc1ccc(C#N)cc1,Activity,[14],22.6%
same,CLH,[15],0.011 mL/min
same,Activity,[16],46.7%
same,Activity,[17],0.4 g
same,Activity,[18],Non-Toxic
same,Drug metabolism,[19],Metabolite_Detected
same,Drug metabolism,[20],Metabolite_Detected
same,Activity,[21]; time 7.0 day,Dose-dependent effect
same,ED50,"[21]; po, 168 h, time 7 day",20.8 mg/kg
same,solubility,[22],Insoluble
same,Activity,[23],Non-Toxic
same,Activity,[24],40.7%
same,fold change (FC),[25],1.92
same,Activity,[26],Non-Toxic
same,fold change (FC),[27],5
